Read-outs that look alike come from different tables or passages of the source.
Legend:
in vivo = assay: in vivo; design: species or system mice; conditions: for HL_Lambda_z / Cl_F_obs / Vz_F_obs / AUC(0-t) / Cmax / Tmax / AUC(0-inf): Mean; for Kp / AUC(0-t) / Cmax / Tmax / AUC(0-inf): mouse, in vivo; for Kp: po, 50 mg/kg, mice, oral 50 mg/kg, 5 min to 8 h; for AUC(0-inf): read-out: AUCINF_obs
Description: Tissue distribution studies were conducted by administration of the compound to mice at a dose of 50 mg/kg orally and intravenously. Plasma and tissue samples were collected at various times from 5 min to 8 h. The tissue-to-plasma concentration ratios measured after oral dosing were: 0.6 (range: 0.3-1.1, brain), 3.2 (range: 1.9-5.0, spinal cord), 6.5 (range: 0.9-10.3, liver), 24.0 (range: 5.1-59.9, lung), 6.6 (range: 1.2-14.9, heart), 16.9 (range: 4.3-26.8, kidney), 77.5 (range: 11.5-341, spleen), 29.2 (range: 6.3-50.2, cecum), 67.4 (range: 11.6-326, colon), 5.2 (range: 2.1-8.0, testes). The concentration-time profiles of the compound in these tissues generally followed those in plasma. The tissue-to-plasma concentration ratios in these selected tissues are generally within the normal ranges of the marketed drugs.
There are complex equilibria between the compound concentrations in blood, CSF and spinal cord. A high concentration in the CSF would yield a large concentration in the spinal cord. Since Formula 1 is a Pgp substrate and highly tissue-bound, its higher concentrations in the spinal cord tissue compared to the brain tissue are not surprising (Table 2).

[1] = assay type: in vitro ADME, mouse, rat, human
Description: Metabolic stability studies in mouse, rat and human liver microsomes were performed at a compound concentration of 1 μM.
A total of five metabolites were detected in all three species. […] Due to the similarity in the plasma stability of the compound in the mouse and the human plasma, and toxicology studies would preferably be performed in the mouse.

[2] = assay type: in vivo, rats; conditions: for Findings: PO, Rat
Description: The tolerability of Formula 1 was evaluated in mice and rats. […] The compound was also tolerated following a single dose of 100 mg/kg in the mouse.

[3] = Brain, second block of the table, route not given
[4] = Plasma, second block of the table, route not given
[5] = Spinal Cord, second block of the table, route not given

## CC(C)(C)C(=O)O[C@@H]1[C@@H]2[C@H]3C[C@H](C[C@@H]1N3Cc1ccccn1)CN2C(=O)CC(F)(F)F (relative stereo) [Formula 1, (2S*,3S*,3aS*,6R*,7aR*)-1-(pyridin-2-ylmethyl)-4-(3,3,3-trifluoropropanoyl)octahydro-1H-2,6-methanopyrrolo[3,2-b]pyridin-3-yl pivalate]
In vivo; [3]
  HL_Lambda_z: 0.74 h
  AUC(0-t): 2770 ng·h/mL
  Cmax: 6750 ng/mL
  Tmax: 4.8 min
In vivo; Plasma, SC
  Cl_F_obs: 120.292 mL/min/kg
  HL_Lambda_z: 0.37 h
  Vz_F_obs: 3.84783 L/kg
  Tmax: 15 min
  AUC(0-inf): 1390 ng·h/mL
In vivo; [4]
  Cl_F_obs: 672.2167 mL/min/kg
  HL_Lambda_z: 1.20 h
  Vz_F_obs: 72.1615 L/kg
  AUC(0-t): 2590 ng·h/mL
  Cmax: 3080 ng/mL
  AUC(0-inf): 2610 ng·h/mL
In vivo; Spinal Cord, SC
  HL_Lambda_z: 0.53 h
In vivo; [5]
  HL_Lambda_z: 1.56 h
  AUC(0-t): 15500 ng·h/mL
  Cmax: 30000 ng/mL
In vivo; male, read-out: tissue-to-plasma concentration ratio, testes
  Kp: 5.2
In vivo; male, read-out: tissue-to-plasma concentration ratio, testes, range
  Kp: 2.1 to 8
In vivo; read-out: tissue-to-plasma concentration ratio, brain
  Kp: 0.6
In vivo; read-out: tissue-to-plasma concentration ratio, brain, range
  Kp: 0.3 to 1.1
In vivo; read-out: tissue-to-plasma concentration ratio, cecum
  Kp: 29.2
In vivo; read-out: tissue-to-plasma concentration ratio, cecum, range
  Kp: 6.3 to 50.2
In vivo; read-out: tissue-to-plasma concentration ratio, colon
  Kp: 67.4
In vivo; read-out: tissue-to-plasma concentration ratio, colon, range
  Kp: 11.6 to 326
In vivo; read-out: tissue-to-plasma concentration ratio, heart
  Kp: 6.6
In vivo; read-out: tissue-to-plasma concentration ratio, heart, range
  Kp: 1.2 to 14.9
In vivo; read-out: tissue-to-plasma concentration ratio, kidney
  Kp: 16.9
In vivo; read-out: tissue-to-plasma concentration ratio, kidney, range
  Kp: 4.3 to 26.8
In vivo; read-out: tissue-to-plasma concentration ratio, liver
  Kp: 6.5
In vivo; read-out: tissue-to-plasma concentration ratio, liver, range
  Kp: 0.9 to 10.3
In vivo; read-out: tissue-to-plasma concentration ratio, lung
  Kp: 24
In vivo; read-out: tissue-to-plasma concentration ratio, lung, range
  Kp: 5.1 to 59.9
In vivo; read-out: tissue-to-plasma concentration ratio, spinal cord
  Kp: 3.2
In vivo; read-out: tissue-to-plasma concentration ratio, spinal cord, range
  Kp: 1.9 to 5
In vivo; read-out: tissue-to-plasma concentration ratio, spleen
  Kp: 77.5
In vivo; read-out: tissue-to-plasma concentration ratio, spleen, range
  Kp: 11.5 to 341
In vivo; sc, Brain
  AUC(0-t): 790 ng·h/mL
  Cmax: 1380 ng/mL
In vivo; sc, Plasma
  AUC(0-t): 1380 ng·h/mL
  Cmax: 1900 ng/mL
In vivo; sc, Spinal Cord
  AUC(0-t): 6210 ng·h/mL
  Cmax: 11900 ng/mL
[1]
  unique human metabolites: No unique human metabolites were detected
[1]; in all three species
  total metabolites detected: five
[1]; mouse, rat and human liver microsomes
  major metabolic pathways: N-dealkylation and oxidation
[2]; 50 mg/kg, 5 days
  Findings: NPF
[2]; 100 mg/kg, 1 day
  Findings: NPF
[2]; rats, oral, once daily 50 mg/kg for 5 days
  adverse effects: did not show any adverse effects
